Measurements taken from US10131652B2, “Pyrimidinyloxy benzene derivatives as herbicides” (E. I. DU PONT DE NEMOURS AND COMPANY, priority 2014, dated 2018).

Assays:
Format in all cases: in vivo
rice (Oryza sativa) = test: Test C flooded paddy test plant response; settings: Flood, 250 g ai/ha; scale of 0 to 100 where 0 is no effect and 100 is complete control; 13 to 15 days
How it was run: (§1)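 Two-leaf stage → flood to 3 cm → compound into water → hold depth, greenhouse 13–15 d → visual score vs controls (0 none, 100 complete control).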

[1] = tested on: barnyardgrass (Echinochloa crus-galli); test: Test C flooded paddy test plant response; settings: Flood, 250 g ai/ha; scale of 0 to 100 where 0 is no effect and 100 is complete control; 13 to 15 days
How it was run: as §1

[2] = tested on: small-flower umbrella sedge (Cyperus difformis); test: Test C flooded paddy test plant response; settings: Flood, 250 g ai/ha; scale of 0 to 100 where 0 is no effect and 100 is complete control; 13 to 15 days
How it was run: as §1

[3] = tested on: ducksalad (Heteranthera limosa); test: Test C flooded paddy test plant response; settings: Flood, 250 g ai/ha; scale of 0 to 100 where 0 is no effect and 100 is complete control; 13 to 15 days
How it was run: as §1

[4] = tested on: blackgrass (Alopecurus myosuroides); test: Test B postemergence plant response
How it was run: (§2)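 Seedlings in a loam soil and sand mix received a postemergence application of the formulated chemicals at the one- to two-leaf stage (2–10 cm tall). They were kept in a greenhouse for roughly 10 days, then scored for injury relative to untreated plants, 0 meaning no effect and 100 complete control.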

[5] = tested on: galium (catchweed bedstraw, Galium aparine); test: Test B postemergence plant response
How it was run: as §2

[6] = tested on: Italian ryegrass (Lolium multiflorum); test: Test B pre-/postemergence plant response
Source text: (§3) Seeds of plant species selected from bamyardgrass (Echinochloa crus-galli), kochia (Kochia scoparia), ragweed (common ragweed, Ambrosia elatior), Italian ryegrass (Lolium multiflorum), large (Lg) crabgrass (Digitaria sanguinalis), giant foxtail (Setaria faberii), momingglory (Ipomoea spp.), pigweed (Amaranthus retroflexus), velvetleaf (Abutilon theophrasti), wheat (Triticum aestivum), and corn (Zea mays) were planted into a blend of loam soil and sand and treated preemergence with a directed soil spray using test chemicals formulated in a non-phytotoxic solvent mixture which included a surfactant. At the same time, plants selected from these crop and weed species and also blackgrass (Alopecurus myosuroides), and galium (catchweed bedstraw, Galium aparine) were planted in pots containing the same blend of loam soil and sand and treated with postemergence applications of test chemicals formulated in the same manner. Plants ranged in height from 2 to 10 cm and were in the one- to two-leaf stage for the postemergence treatment. Treated plants and untreated controls were maintained in a greenhouse for approximately 10 days, after which time all treated plants were compared to untreated controls and visually evaluated for injury. Plant response ratings, summarized in Table B, are based on a 0 to 100 scale where 0 is no effect and 100 is complete control. A dash (-) response means no test result.

[7] = tested on: ragweed (common ragweed, Ambrosia elatior); test: Test B pre-/postemergence plant response
Source text: as §3

[8] = tested on: giant foxtail (Setaria faberii); test: Test B pre-/postemergence plant response
Source text: as §3

[9] = tested on: barnyardgrass (Echinochloa crus-galli); test: Test B pre-/postemergence plant response
Source text: as §3

corn (Zea mays) = test: Test B pre-/postemergence plant response
Source text: as §3

[10] = tested on: wheat (Triticum aestivum); test: Test B pre-/postemergence plant response
Source text: as §3

kochia (Kochia scoparia) = test: Test B pre-/postemergence plant response
Source text: as §3

[11] = tested on: pigweed (Amaranthus retroflexus); test: Test B pre-/postemergence plant response
Source text: as §3

[12] = 125 g ai/ha, postemergence, 0 to 100 scale, 0 no effect, 100 complete control
[13] = Postemergence, 31 g ai/ha, 0 to 100 scale (0 no effect, 100 complete control)
[14] = 31 g ai/ha, Preemergence, 0 to 100 scale where 0 is no effect and 100 is complete control
[15] = Preemergence, 125 g ai/ha, 0 to 100 scale (0 no effect, 100 complete control)
[16] = 31 g ai/ha, Postemergence, 0 to 100 scale, 0 no effect, 100 complete control

Structure (SMILES)	Rice plant response rating (rice (Oryza sativa))	Barnyardgrass plant response rating [1]	Sedge, Umbrella plant response rating [2]	Ducksalad plant response rating [3]	Plant response rating, Blackgrass [4, 12]	Plant response rating, Galium [5, 12]	Plant response rating, Ryegrass, Italian [6, 14]	Plant response rating, Ryegrass, Italian [6, 12]	Ryegrass, Italian plant response rating [6, 15]	Plant response rating, Ragweed [7, 14]	Plant response rating, Ragweed [7, 12]	Ragweed plant response rating [7, 15]	Plant response rating, Foxtail, Giant [8, 14]	Plant response rating, Foxtail, Giant [8, 12]	Foxtail, Giant plant response rating [8, 15]	Plant response rating, Barnyardgrass [9, 14]	Plant response rating, Barnyardgrass [9, 12]	Barnyardgrass plant response rating [9, 15]	Plant response rating, Corn (corn (Zea mays); [12])	Plant response rating, Wheat [10, 12]	further results
Brc1cnc(Oc2ccccc2-c2ccsc2)nc1 [Compound 232]	0	0	0	0	0	0	0	0	0	0	0	0	0	0	10	0	0	20	0	0	Plant response rating, Blackgrass [4, 13]: 0; Plant response rating, Galium [5, 13]: 0; Plant response rating, Ryegrass, Italian [6, 13]: 0; Plant response rating, Ragweed [7, 13]: 0; Plant response rating, Foxtail, Giant [8, 13]: 0; Plant response rating, Barnyardgrass [9, 13]: 0; Plant response rating, Corn (corn (Zea mays); [13]): 0; Plant response rating, Wheat [10, 13]: 0; Plant response rating, Kochia (kochia (Kochia scoparia); [14]): 0; Plant response rating, Kochia (kochia (Kochia scoparia); [12]): 0; Plant response rating, Kochia (kochia (Kochia scoparia); [13]): 0; Kochia plant response rating (kochia (Kochia scoparia); [15]): 0; Plant response rating, Pigweed [11, 14]: 20; Plant response rating, Pigweed [11, 12]: 40; Plant response rating, Pigweed [11, 13]: 10; Pigweed plant response rating [11, 15]: 30
Fc1ccc(-c2cc(C(F)(F)F)no2)c(Oc2ncc(Br)cn2)c1 [Compound 125]	0	0	90	80	30	100	0	10	10	0	20	0	10	20	90	0	30	50	10	0	Plant response rating, Blackgrass [4, 16]: 10; Plant response rating, Foxtail, Giant [8, 16]: 0; Plant response rating, Barnyardgrass [9, 16]: 10; Plant response rating, Corn (corn (Zea mays); [16]): 0; Plant response rating, Kochia (kochia (Kochia scoparia); [14]): 0; Plant response rating, Kochia (kochia (Kochia scoparia); [12]): 80; Kochia plant response rating (kochia (Kochia scoparia); [15]): 40; Plant response rating, Pigweed [11, 14]: 0; Plant response rating, Pigweed [11, 12]: 90; Pigweed plant response rating [11, 15]: 80
